Data taken from ChEMBL document CHEMBL1141672, “Novel bradykinin-1 antagonists containing a (1,2,3,4-tetrahydro-isoquinolin-1-yl)acetic acid scaffold” (Eur J Med Chem, 2008).

Experiments:
[1] = target: T1, B1 bradykinin receptor (Homo sapiens) (UniProt P46663); assay: Antagonist activity against human recombinant bradykinin B1 receptor expressed in CHO cells assessed as inhibition of [Lys-des-Arg9]bradykinin-induced cytoplasmic calcium release at 5 uM by fluorimetry; format: functional, cell-based
T1 sequence (whole entry): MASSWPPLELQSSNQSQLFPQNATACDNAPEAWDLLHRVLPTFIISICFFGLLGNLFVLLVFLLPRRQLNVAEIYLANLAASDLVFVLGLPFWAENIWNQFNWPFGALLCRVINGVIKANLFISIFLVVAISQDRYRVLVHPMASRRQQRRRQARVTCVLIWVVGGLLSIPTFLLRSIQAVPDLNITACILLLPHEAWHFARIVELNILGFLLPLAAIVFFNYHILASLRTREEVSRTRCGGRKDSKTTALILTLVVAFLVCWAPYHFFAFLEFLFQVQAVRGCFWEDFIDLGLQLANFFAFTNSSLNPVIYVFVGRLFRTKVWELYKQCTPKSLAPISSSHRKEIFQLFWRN

[2] = target: T2, B1 bradykinin receptor (Homo sapiens, UniProt P46663); assay: Displacement of [3H]Lys-bradykinin from human recombinant bradykinin B1 receptor expressed in CHO cells by scintillation counting; format: cell-based
T2 sequence (P46663 whole entry): T1 sequence (whole entry)

SMILES | inhibition [1] | Ki [2]
COc1cc2c(cc1OC)C(CC(=O)NCCc1ccc(C3=NCCN3)cc1)N(S(=O)(=O)c1ccc(C)cc1)CC2 (racemic) | 85.7% | 2000 nM
Cc1ccc(S(=O)(=O)N2CCc3ccccc3C2CC(=O)NCCc2ccc(C3=NCCN3)cc2)cc1 (racemic) | 99% | 67 nM
Cc1ccc(S(=O)(=O)N2CCc3ccccc3C2CC(=O)NC2CCCCCC2)cc1 (racemic) | 37% | 
Cc1ccc(S(=O)(=O)N2CCc3ccccc3C2CC(=O)NCCCCCCN)cc1 (racemic) | 16.3% | 
Cc1ccc(S(=O)(=O)N2CCc3ccccc3C2CC(=O)NCCCCN)cc1 (racemic) | 15.9% | 

Results, then the compound that gave them:

inhibition [1] | Ki [2] | SMILES
9.3% |  | COc1cc2c(cc1OC)C(CC(=O)NC1CCCCCC1)N(S(=O)(=O)c1ccc(C)cc1)CC2 (racemic)
10.9% |  | COc1cc2c(cc1OC)C(CC(=O)NCCCCCCN)N(S(=O)(=O)c1ccc(C)cc1)CC2 (racemic)
15.3% |  | COc1cc2c(cc1OC)C(CC(=O)NCCCCN)N(S(=O)(=O)c1ccc(C)cc1)CC2 (racemic)
19% |  | COc1cc2c(cc1OC)C(CC(=O)NCCCCNC(=N)N)N(S(=O)(=O)c1ccc(C)cc1)CC2 (racemic)
44.9% |  | Cc1ccc(S(=O)(=O)N2CCc3ccccc3C2CC(=O)NCCCCNC(=N)N)cc1 (racemic)
